Laboratory results as given in ChEMBL document CHEMBL1201862, “PubChem BioAssay data set” (2004).
Calls of active or inactive are those of the source.

Legend:
[1] = inhibitors of intracellular T. cruzi replication, confirmation, NIH3T3 host cells, beta-gal luminescence (AID 2044); type: functional, cell-based;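 further: intracellular parasites grown in NIH/3T3 mouse fibroblasts as host cells; luminescent beta-galactosidase reporter signal from transgenic T. cruzi replicating inside host cells; inhibitors lower the luminescence signal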
[2] = cytotoxicity toward NIH3T3 fibroblasts, dose response, counter-screen, cell-based, ATP luminescence, mouse fibroblasts (AID 2010); type: functional;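 further: cells exposed to compound for about 90 hours before reading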
[3] = target: T1, Neuropeptide Y receptor type 2 (Homo sapiens, UniProt P49146); type: functional, cell-based;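 further: HEK293 cells expressing the receptor and a CNG channel; stimulus was NPY near EC95 followed by isoproterenol to raise cAMP; antagonist potency measured as restoring cAMP signal that NPY suppresses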
T1 sequence (P49146 whole entry): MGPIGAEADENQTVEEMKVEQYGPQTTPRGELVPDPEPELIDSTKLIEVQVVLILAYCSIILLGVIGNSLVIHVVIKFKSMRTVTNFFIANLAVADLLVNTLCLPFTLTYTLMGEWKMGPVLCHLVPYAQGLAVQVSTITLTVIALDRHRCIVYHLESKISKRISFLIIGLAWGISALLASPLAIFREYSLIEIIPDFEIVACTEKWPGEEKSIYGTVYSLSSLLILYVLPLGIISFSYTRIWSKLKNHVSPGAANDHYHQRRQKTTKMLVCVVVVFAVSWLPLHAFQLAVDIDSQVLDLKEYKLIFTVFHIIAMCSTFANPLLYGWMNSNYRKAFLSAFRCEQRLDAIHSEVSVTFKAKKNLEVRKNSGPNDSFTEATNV

[4] = target: T2, Neuropeptide Y receptor type 1 (Homo sapiens, UniProt P25929); type: functional;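 further: HEK293 cells with a CNG channel challenged with NPY then isoproterenol; potency as antagonist that reverses NPY suppression of cAMP signal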
T2 sequence (P25929 whole entry): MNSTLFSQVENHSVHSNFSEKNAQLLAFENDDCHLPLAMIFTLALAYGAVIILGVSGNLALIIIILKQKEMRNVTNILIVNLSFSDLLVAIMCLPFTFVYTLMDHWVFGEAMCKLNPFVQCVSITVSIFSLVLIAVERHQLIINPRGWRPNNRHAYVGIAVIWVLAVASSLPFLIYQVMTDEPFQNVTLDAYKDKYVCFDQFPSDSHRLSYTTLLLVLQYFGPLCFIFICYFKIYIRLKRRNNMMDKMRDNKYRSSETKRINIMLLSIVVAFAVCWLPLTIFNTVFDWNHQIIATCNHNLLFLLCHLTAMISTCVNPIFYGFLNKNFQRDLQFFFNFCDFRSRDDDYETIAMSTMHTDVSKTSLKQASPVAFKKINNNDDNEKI

[5] = LGR2 antagonists, dose response, cell-based, HEK293, CRE-luciferase reporter, cherry pick, set 2 (AID 743343); type: functional;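 further: transfected cells were stimulated with diluted bursicon conditioned medium after compound addition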
[6] = MC4R antagonists, dose response, counter-screen for LGR2 antagonist project, cell-based, plate reader, cherry pick (AID 743444); type: functional;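 further: transfected HEK 293 cells stimulated with alpha-MSH peptide; potency of inhibitors of the alpha-MSH evoked signal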
[7] = Luminescence Cell-Based Dose Confirmation HTS to Identify Inhibitors of Platelet Dense Granule Release. [Related pubchem assays: 1663 (Primary HTS), 1678 (Summary of Project)]; type: functional
[8] = HEK293 cell cytotoxicity, dose response, cytotoxicity control, plate reader, cherry-picked samples (AID 743446); type: functional, cell-based
[9] = Luminescence Cell-Based Dose Response HTS to Identify Inhibitors of 5'UTR Stem-Loop Driven Prion Protein mRNA Translation in H4 Neuroglioblastoma Cells. [Related pubchem assays: 1827 (Project Summary), 1813 (Primary HTS)]; type: functional
[10] = inhibitors of firefly luciferase expression or activity, dose response, H4 neuroglioma cells, luminescence (AID 1990); type: functional, cell-based
[11] = target: Luciferin 4-monooxygenase (Photinus pyralis, UniProt P08659); assay: firefly luciferase enzyme inhibitors, dose response, biochemical, luminescence (AID 1891)
[12] = Luminescence-based counterscreen assay for KLF5 inhibitors: dose response cell-based high throughput screening assay to identify cytotoxic compounds using the IEC-6 intestinal epithelial cell line. [Related pubchem assays: 1700 (Primary screen.), 1834 (Confirmation screen.), 1858 (Summary AID.), 1905 (Counterscreen.)]; type: functional
[13] = target: Peroxisome proliferator-activated receptor gamma/Nuclear receptor coactivator 3 (Homo sapiens, UniProt P37231); type: functional;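 further: agonist potency for raising coactivator recruitment to the receptor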
[14] = target: Peroxisome proliferator-activated receptor gamma/Nuclear receptor coactivator 1 (Homo sapiens, UniProt P37231); type: functional;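 further: agonist potency as compounds enhance coactivator SRC-1 recruitment to PPARgamma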
[15] = target: Peroxisome proliferator-activated receptor gamma/Nuclear receptor coactivator 2 (Homo sapiens, UniProt P37231); type: functional;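 further: agonist potency for raising coactivator recruitment to the receptor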
Cytochrome P450 3A4 [16] = target: T3, Cytochrome P450 3A4 (Homo sapiens, UniProt P08684);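 further: CYP3A4 tested as one member of a cytochrome P450 panel screen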
Cytochrome P450 2C9 = Cytochrome P450 2C9 (Homo sapiens, UniProt P11712)
Cytochrome P450 2C19 [17] = target: T4, Cytochrome P450 2C19 (Homo sapiens, UniProt P33261); assay: Cytochrome panel assay with activity outcomes. Panel member name: p450-cyp2c19 Compounds with AC50 equal or less than 10 uM are considered active; type: functional; settings: read-out: AC50
[18] = target: T5, Mannose-6-phosphate isomerase (Homo sapiens, UniProt P34949); assay: human PMI inhibitors, high substrate, primary screen, biochemical, fluorescence intensity, high mannose 6-phosphate (AID 1220)
T5 sequence (P34949 whole entry): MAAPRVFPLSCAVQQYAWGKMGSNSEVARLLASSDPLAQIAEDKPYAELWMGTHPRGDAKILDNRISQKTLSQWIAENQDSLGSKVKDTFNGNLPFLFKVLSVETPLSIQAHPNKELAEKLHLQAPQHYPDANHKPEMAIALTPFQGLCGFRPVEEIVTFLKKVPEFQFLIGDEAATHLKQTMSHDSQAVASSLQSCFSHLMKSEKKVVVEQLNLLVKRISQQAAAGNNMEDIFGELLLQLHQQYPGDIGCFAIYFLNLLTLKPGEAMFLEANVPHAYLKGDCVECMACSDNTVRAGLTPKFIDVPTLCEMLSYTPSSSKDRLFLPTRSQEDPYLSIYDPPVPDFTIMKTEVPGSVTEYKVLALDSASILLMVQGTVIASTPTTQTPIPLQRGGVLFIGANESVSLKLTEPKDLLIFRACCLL

[19] = target: T5, Mannose-6-phosphate isomerase; assay: inhibitors of human PMI, primary screen, biochemical, fluorescence intensity, coupled assay (AID 1209)
Cytochrome P450 3A4 [20] = target: T3, Cytochrome P450 3A4; remark: listed apart in the source
Cytochrome P450 2C19 [21] = target: T4, Cytochrome P450 2C19; assay: qHTS Assay for Inhibitors and Substrates of Cytochrome P450 2C19. [Related pubchem assays: 410 ]; type: ADME; settings: read-out: Potency
[22] = cytotoxicity toward DRD oncogenic fibroblasts, dose response, cell-based, non-viral oncogenic, luminescence (AID 1934); type: functional; settings: Homo sapiens
BJ [23] = assay: cells; type: functional, cell-based; settings: Homo sapiens
BJ [24] = assay: cytotoxicity toward BJ-TERT-LT-ST fibroblasts, dose response, cell-based, RAS-independent, luminescence (AID 1935); type: functional; settings: Homo sapiens;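 further: BJ fibroblasts immortalized with TERT plus LT and ST oncogenes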
BJ [25] = assay: cytotoxicity toward BJ-TERT fibroblasts, dose response, cell-based, RAS-independent, luminescence (AID 1933); type: functional; settings: Homo sapiens
[26] = target: T6, Histone-lysine N-methyltransferase NSD2 (Homo sapiens, UniProt O96028); type: biochemical
T6 sequence (O96028 whole entry): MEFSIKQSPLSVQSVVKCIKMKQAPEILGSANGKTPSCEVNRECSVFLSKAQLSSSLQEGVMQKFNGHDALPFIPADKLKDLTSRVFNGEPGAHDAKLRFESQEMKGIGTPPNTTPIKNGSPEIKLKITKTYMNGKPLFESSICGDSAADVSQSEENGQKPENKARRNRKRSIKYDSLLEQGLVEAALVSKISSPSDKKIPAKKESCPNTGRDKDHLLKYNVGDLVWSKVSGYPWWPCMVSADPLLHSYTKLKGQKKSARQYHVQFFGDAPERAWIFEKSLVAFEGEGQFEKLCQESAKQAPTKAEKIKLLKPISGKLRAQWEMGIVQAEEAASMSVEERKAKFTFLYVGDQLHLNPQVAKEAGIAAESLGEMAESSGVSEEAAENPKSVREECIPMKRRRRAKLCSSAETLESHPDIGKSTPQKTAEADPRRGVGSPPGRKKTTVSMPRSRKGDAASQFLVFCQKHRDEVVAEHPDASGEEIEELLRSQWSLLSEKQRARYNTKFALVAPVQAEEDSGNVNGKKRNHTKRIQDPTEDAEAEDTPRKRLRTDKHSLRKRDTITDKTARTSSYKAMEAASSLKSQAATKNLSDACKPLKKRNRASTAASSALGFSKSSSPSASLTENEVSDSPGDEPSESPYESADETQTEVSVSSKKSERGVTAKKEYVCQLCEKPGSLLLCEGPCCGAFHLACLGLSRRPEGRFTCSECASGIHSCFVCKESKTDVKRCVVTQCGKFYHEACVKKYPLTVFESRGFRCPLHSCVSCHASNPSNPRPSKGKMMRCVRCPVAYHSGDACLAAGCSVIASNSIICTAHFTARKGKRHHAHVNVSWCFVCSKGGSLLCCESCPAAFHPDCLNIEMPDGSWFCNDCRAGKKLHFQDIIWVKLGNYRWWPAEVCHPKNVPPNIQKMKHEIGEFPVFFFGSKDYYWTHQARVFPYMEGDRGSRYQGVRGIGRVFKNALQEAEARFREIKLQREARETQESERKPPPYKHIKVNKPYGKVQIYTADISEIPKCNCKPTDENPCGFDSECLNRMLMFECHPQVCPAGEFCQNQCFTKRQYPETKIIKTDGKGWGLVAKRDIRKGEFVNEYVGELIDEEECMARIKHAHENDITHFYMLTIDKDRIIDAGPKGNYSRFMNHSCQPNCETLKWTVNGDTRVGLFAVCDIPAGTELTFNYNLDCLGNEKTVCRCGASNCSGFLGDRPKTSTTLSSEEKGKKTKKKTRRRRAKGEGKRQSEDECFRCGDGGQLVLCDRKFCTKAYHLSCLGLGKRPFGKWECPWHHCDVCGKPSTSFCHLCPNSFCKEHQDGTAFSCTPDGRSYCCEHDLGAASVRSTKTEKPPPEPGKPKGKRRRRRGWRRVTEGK

[27] = HepG2 cell cytotoxicity, dose response, cytotoxicity control, cherry-picked samples (AID 1159577); type: functional, cell-based
[28] = P. falciparum Dd2 growth inhibitors, dose response, SYBR Green, cherry-picked samples (AID 1159567); type: functional, cell-based

T3 sequence (P08684 whole entry): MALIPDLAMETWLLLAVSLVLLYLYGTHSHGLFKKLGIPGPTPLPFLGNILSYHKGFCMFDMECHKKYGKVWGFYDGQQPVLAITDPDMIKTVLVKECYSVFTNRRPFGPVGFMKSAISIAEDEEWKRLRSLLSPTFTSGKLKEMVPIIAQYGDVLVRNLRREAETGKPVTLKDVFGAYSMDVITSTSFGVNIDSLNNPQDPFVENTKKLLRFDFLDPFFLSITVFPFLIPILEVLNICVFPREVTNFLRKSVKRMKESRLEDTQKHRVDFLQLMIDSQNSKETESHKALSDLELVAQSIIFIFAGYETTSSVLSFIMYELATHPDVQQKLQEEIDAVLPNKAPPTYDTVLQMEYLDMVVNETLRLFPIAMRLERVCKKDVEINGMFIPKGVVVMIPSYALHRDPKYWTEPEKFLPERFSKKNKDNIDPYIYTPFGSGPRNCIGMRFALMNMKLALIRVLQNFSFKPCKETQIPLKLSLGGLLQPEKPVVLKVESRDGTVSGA
Chain of Peroxisome proliferator-activated receptor gamma/Nuclear receptor coactivator 1 (P37231 whole entry): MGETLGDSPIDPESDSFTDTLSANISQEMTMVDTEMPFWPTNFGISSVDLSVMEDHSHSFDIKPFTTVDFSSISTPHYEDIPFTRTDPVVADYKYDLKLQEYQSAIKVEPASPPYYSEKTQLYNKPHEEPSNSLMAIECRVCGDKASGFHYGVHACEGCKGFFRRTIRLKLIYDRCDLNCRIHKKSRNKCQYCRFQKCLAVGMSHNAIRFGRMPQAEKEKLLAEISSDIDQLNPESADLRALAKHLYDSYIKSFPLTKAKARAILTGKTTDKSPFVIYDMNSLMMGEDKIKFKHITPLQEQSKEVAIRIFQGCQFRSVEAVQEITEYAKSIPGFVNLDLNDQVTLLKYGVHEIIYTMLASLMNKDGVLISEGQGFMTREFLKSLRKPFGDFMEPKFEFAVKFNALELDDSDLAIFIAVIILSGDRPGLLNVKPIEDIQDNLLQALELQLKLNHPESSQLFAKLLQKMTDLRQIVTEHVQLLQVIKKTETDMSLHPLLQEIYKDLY
Chain of Peroxisome proliferator-activated receptor gamma/Nuclear receptor coactivator 1 (Q15788 whole entry, further chain): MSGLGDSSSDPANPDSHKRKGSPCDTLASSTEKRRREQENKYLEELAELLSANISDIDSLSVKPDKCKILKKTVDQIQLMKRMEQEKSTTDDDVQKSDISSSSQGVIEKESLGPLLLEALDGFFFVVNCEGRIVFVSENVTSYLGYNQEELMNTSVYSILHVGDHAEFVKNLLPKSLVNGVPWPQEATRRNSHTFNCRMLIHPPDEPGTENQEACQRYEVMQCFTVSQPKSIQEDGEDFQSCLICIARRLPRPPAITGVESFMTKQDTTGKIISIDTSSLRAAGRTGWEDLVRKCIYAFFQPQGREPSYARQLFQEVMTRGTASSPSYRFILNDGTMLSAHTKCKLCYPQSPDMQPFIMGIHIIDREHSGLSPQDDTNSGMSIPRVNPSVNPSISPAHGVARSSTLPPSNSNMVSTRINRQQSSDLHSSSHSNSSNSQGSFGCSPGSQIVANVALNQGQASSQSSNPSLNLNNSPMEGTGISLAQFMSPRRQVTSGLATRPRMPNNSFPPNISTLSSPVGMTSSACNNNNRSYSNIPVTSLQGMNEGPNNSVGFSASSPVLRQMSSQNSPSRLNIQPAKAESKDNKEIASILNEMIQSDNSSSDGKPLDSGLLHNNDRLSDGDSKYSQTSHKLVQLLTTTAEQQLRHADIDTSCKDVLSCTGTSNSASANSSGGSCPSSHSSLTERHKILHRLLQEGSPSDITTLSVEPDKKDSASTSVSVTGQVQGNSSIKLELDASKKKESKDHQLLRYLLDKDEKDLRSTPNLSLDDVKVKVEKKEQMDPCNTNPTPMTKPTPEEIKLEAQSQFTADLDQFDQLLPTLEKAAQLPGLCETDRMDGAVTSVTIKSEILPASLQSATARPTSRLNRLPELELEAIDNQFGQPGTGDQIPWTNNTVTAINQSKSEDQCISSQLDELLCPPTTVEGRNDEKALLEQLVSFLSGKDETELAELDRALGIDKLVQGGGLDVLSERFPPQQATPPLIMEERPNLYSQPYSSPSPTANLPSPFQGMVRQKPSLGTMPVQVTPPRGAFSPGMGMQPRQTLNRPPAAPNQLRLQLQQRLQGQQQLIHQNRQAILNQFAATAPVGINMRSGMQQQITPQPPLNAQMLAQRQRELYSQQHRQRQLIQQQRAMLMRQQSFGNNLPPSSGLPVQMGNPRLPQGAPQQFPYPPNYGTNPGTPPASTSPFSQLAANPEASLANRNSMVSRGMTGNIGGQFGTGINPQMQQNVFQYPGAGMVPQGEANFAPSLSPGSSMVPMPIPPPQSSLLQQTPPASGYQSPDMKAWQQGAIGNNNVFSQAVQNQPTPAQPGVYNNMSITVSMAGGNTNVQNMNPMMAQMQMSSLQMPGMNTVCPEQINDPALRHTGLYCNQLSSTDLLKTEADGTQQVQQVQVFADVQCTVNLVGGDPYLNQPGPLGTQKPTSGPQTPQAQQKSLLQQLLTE
Chain of Peroxisome proliferator-activated receptor gamma/Nuclear receptor coactivator 3 (P37231 whole entry): as the sequence (P37231 whole entry) above
Chain of Peroxisome proliferator-activated receptor gamma/Nuclear receptor coactivator 3 (Q9Y6Q9 whole entry, further chain): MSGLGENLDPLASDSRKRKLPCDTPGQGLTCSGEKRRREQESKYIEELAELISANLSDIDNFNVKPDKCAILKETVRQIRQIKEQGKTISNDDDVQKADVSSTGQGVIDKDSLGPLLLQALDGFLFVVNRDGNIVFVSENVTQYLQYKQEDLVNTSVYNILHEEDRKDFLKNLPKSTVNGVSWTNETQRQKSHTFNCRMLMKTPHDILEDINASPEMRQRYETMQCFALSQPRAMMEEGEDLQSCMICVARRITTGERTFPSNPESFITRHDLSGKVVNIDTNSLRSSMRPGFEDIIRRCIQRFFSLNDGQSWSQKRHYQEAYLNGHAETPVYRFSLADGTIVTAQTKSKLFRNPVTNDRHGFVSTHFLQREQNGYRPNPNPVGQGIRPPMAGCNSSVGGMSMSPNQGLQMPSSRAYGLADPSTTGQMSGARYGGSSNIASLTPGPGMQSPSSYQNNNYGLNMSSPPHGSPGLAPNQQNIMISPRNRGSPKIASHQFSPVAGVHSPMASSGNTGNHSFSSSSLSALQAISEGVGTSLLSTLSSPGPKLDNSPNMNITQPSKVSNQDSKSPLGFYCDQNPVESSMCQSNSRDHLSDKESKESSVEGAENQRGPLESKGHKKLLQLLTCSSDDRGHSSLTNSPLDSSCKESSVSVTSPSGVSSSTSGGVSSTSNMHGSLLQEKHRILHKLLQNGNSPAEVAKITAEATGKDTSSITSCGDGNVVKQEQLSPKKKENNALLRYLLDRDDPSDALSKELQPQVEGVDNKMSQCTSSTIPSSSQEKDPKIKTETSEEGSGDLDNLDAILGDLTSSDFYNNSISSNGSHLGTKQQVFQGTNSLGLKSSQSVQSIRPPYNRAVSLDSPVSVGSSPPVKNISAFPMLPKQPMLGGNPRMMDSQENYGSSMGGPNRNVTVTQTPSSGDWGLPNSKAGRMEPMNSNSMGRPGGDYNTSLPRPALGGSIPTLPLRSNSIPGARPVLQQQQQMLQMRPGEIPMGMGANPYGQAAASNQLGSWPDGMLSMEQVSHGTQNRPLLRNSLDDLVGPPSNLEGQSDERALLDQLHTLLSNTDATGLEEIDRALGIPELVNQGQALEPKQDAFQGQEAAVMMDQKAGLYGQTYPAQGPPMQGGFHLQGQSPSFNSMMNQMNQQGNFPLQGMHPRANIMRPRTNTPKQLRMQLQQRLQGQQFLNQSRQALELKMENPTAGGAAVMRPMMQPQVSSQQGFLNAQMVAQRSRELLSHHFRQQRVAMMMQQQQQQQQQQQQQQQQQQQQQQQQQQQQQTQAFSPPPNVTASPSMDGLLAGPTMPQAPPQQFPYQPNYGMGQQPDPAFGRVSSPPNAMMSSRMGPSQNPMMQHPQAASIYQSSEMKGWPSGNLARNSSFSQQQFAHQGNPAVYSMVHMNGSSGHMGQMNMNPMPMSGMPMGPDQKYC
T4 sequence (P33261 whole entry): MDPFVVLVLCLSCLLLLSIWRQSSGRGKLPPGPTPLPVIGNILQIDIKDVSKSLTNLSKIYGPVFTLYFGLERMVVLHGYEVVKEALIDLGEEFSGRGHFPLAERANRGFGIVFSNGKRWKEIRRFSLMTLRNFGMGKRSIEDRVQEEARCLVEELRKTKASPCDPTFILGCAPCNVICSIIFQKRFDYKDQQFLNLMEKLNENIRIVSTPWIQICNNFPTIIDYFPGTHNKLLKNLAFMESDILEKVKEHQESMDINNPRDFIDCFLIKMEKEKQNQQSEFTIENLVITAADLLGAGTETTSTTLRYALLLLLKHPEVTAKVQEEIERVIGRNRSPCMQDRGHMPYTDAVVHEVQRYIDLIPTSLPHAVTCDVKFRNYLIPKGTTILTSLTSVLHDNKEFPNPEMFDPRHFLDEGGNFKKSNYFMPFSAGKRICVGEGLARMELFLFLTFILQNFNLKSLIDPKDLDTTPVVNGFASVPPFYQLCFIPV

O=C(NCCc1c[nH]c2ccccc12)c1cc([N+](=O)[O-])cc([N+](=O)[O-])c1
EC50 [1]: < 0.1 µM (active) | EC50 [2]: > 60 µM (not active) | EC50 (cells): 0.264 µM (active)

O=C(COC(=O)/C=C/c1ccc(Cl)cc1)Nc1ccccc1-c1ccccc1
IC50 [3]: 8.06 µM (active) | IC50 [4]: 6.13 µM (active)

Cc1cc(C(=O)N(C)CC2CCCN(CCc3ccc(F)cc3)C2)c(C)o1 (centres undefined)
EC50 [1]: < 0.1 µM (active) | EC50 [2]: > 60 µM (not active) | EC50 (cells): 0.279 µM (active)

Clc1ccccc1/C=C/c1nc(-c2ccccn2)no1
AC50 [5]: 2 µM (active) | AC50 [6]: 2.74 µM (active) | EC50 [7]: 6.25 µM (active) | AC50 [8]: > 52 µM (inactive) | EC50 [9]: 5.54 µM (active) | EC50 [10]: 3.76 µM (active) | EC50 [11]: 1.87 µM (active) | IC50 [12]: > 39.8 µM (not active)

N#Cc1c(-c2ccccc2)cc(-c2ccccc2)nc1SCc1nnc(-c2ccccc2)o1
EC50 [13]: 27.6 µM (not active) | EC50 [14]: 26.1 µM (not active) | EC50 [15]: 25.1 µM (not active) | AC50 (Cytochrome P450 3A4 [16]): 7.08 µM (inconclusive) | AC50 (Cytochrome P450 2C9): 0.251 µM (inconclusive) | AC50 (Cytochrome P450 2C19 [17]): 1.41 µM (inconclusive)

O=C(O)/C=C/C(=O)Nc1ccc2c(c1)NC(=O)CO2
IC50 [18]: > 50 µM (not active) | IC50 [19]: > 50 µM (not active)

Cc1cc(Cl)ccc1Oc1ncnc2oc(-c3ccccc3)cc12
EC50 [13]: > 79.4 µM (not active) | AC50 (Cytochrome P450 3A4 [20]): inconclusive | EC50 [14]: > 79.4 µM (not active) | EC50 [15]: > 79.4 µM (not active)

CCC(Oc1ccc2c(=O)c(-c3ccccc3OC)coc2c1)C(=O)OCc1ccccc1 (centres undefined)
IC50 [3]: 4.12 µM (active) | IC50 [4]: 11.5 µM (not active)

CCOc1cc2c(C#N)c(N3CCOCC3)nc(N)c2c(N)n1
IC50 [18]: > 50 µM (not active) | IC50 [19]: > 50 µM (not active)

CCO[C@@H]1OC(C(=O)N2CCN(Cc3ccc4c(c3)OCO4)CC2)=C[C@H](c2csc3ccccc23)[C@H]1CCCO
EC50 [13]: > 79.4 µM (not active) | EC50 [14]: > 79.4 µM (not active) | EC50 [15]: > 79.4 µM (not active)

CCOC(=O)OCC1OC(CCc2ccccc2)CCC1Oc1ccc(OC)cc1 (centres undefined)
AC50 (Cytochrome P450 2C19 [21]): 2.51 µM (inconclusive)

COC(=O)c1ccc(Oc2cc(C)nc(-n3nc(C)cc3C)n2)cc1
EC50 [22]: 2.25 µM (active) | EC50 (BJ [23]): 0.851 µM (active) | EC50 (BJ [24]): 0.699 µM (active) | AC50 (Cytochrome P450 3A4 [16]): 39.8 µM (inconclusive) | EC50 (BJ [25]): 0.69 µM (active) | IC50 [12]: 34.2 µM (not active)

COc1ccc(OC)c(Nc2cc(C)nc3nc(C)nn23)c1
IC50 [12]: 13 µM (not active)

Cc1ccc2nc(N(CCCN(C)C)C(=O)c3ccco3)sc2c1
EC50 [1]: < 0.1 µM (active) | EC50 [2]: > 60 µM (not active) | EC50 (cells): 0.036 µM (active)

C(=N/Nc1cc(N2CCOCC2)nc(N2CCOCC2)n1)/c1ccccc1
IC50 [18]: > 50 µM (not active) | AC50 [26]: > 20 µM (inactive) | IC50 [19]: > 50 µM (not active)

COc1ccc(/C=C/C(=O)c2ccc(OC)cc2O)cc1
AC50 (Cytochrome P450 2C19 [21]): 0.398 µM (inconclusive)

S=C(NCCc1ccccc1)N/N=C/c1ccccc1Cl
IC50 [3]: 5.07 µM (active) | IC50 [4]: 5.02 µM (active)

COc1ccc(S(=O)(=O)N(C)C[C@H]2Oc3c(NC(=O)Nc4ccccc4)cccc3C(=O)N([C@@H](C)CO)C[C@H]2C)cc1
AC50 [27]: 33.8 µM (active) | AC50 [28]: 4.8 µM (active)
